The values that follow come from article PMC9728921, “Characterization of a KDM5 small molecule inhibitor with antiviral activity against hepatitis B virus” (PLOS ONE, 2022).

SMILES strings stand for the structures. “Also recorded” adds a separate entry of the source.

One assay relates to KDM enzymes. Put plainly: KDM enzyme panel, selectivity across KDM families. Type of assay: biochemical, human. The protocol:
The following assay protocol was used for all histone demethylases tested except KDM1A, KDM5A, B, and D, which are described below. Compounds were serially diluted into a 384-well Alpha plate as a DMSO solution and mixed with 5 μL reaction buffer (buffer A) containing 50 mM HEPES (pH 7.0), 0.1% BSA, and 0.003% Tween-20. The enzyme of interest was pre-incubated with 15 μM of Fe^2+ for 10 min (except 30 min for KDM2B) in reaction buffer A. 5 μL of the enzyme mixture was added to each of the compound-containing wells and incubated for 10 min. […] The assay plates were read on an Enspire plate reader (PerkinElmer) using a standard AlphaLISA program.
KDM5A and 5B were tested using CisBio HTRF assay platform by Reaction Biology Corp (Malvern, PA). […] The fluorescence resonance energy transfer was measured using an excitation wavelength of 320 nm and emission wavelength of 665 nm on an Envision plate reader (Perkin Elmer). […]
The KDM1 assay was conducted in the presence of […] but without Fe(II) or ascorbic acid. […] The assay plates were read on an Enspire plate reader (PerkinElmer) using a standard AlphaLISA program.
Data was analyzed using GraphPad Prism 6.0 (La Jolla, CA). […] IC50 values were calculated as an average of at least two independent experiments.

The next assay concerns H3K4me3:H3. Put plainly: Global H3K4me3:H3 ratio by ELISA in HBV-infected PHH. Type of assay: cell-based, human. To be noted: single pulse dose; day nine. The protocol:
For the pulse dose regimen, medium containing compound was removed after two hours incubation and replaced with fresh maintenance medium every three to four days. Cells in the pulse dose experiment received only one dose of compound (Day = 0). Histones were enriched from tissue and PBMC samples using the AbCam total histone extraction kit (Cambridge, UK; ab113476) according to the manufacturer’s protocol after cell/tissue dissociation with an IKA T10 TURRAX homogenizer (Wilmington, NC; […] Histones were enriched from 500,000 to 750,000 PHH. PHH monolayers were washed once with cold (4°C) 1X DPBS (Dulbecco’s phosphate buffered saline; 21-031-CV, Corning Inc.). Cold triton extraction buffer (TEB): 1X DPBS, 0.5% triton X-100 (Sigma-Aldrich, T9284), 2 mM phenylmethylsulfonyl fluoride (PMSF; Thermo Fisher Scientific, 36978), was added to the cell monolayer at a density of 1 x 10^6 cells/mL. After 10-minute incubation in TEB at 4°C, the cell monolayer was scraped and cells were pelleted by centrifuged at 1200 rpm at 4°C for 10 minutes. […] Total protein concentration of all samples following histone enrichment was determined using a bicinchoninic acid (BCA) assay (Thermo Fisher Scientific; 23225). […] Absorbance of each well was measured at 450 nm within five minutes using a SpectraMax Plus 384 Microplate Reader (Molecular Devices; PLUS 384).

As to `CCN(CCN(C)C)C(=O)CNCc1cc(C(=O)O)ccn1` [GS-080], the “fold selectivity for KDM5A and KDM5B over members of the KDM4 family” value in the assay with KDM enzymes (KDM4A –C) is recorded as not below 13 fold. Also, in the assay on KDM enzymes (printed as from > 1,100- to > 278,000-fold, relative to KDM5A), the “fold selectivity over members of the other KDM enzyme families tested” value was > 1,100 fold. As to `CCOC(=O)c1ccnc(CNCC(=O)N(CC)CCN(C)C)c1` [GS-5801], the “H3K4me3:H3 level” value in the assay on H3K4me3:H3 is reported as “almost back to baseline levels; also recorded: near baseline levels”.
